Assay results reported in US4598068A, “Benzylphenyl osides, method of preparation and use therefor” (Societe de Recheres Industrielles, priority 1983, dated 1986).

How the values were obtained:
[1] = Acute toxicity, intraperitoneal administration to mice; assay type: in vivo; conditions: mouse, in vivo, ip, read-out: LD50 (lethal dose causing the death of half of the animals)
Text: (§1) The acute toxicity was studied by intraperitoneal administration to mice. It is expressed in the form of LD50 (lethal dose causing the death of half of the animals) or LD0 (maximum non-lethal dose).

[2] = system: cholesterol level in the plasma; test: Hypocholesterolemic activity: plasma cholesterol level in rats; assay type: in vivo, male Wistar rats; conditions: Rattus norvegicus, po, T=0 to T=+24 hours, not corrected for the variation in the control group, read-out: % Variation in the cholesterol level, variation in the subject treated; for change in vivo at 65 mg/kg: 65 mg/kg p.o. at T=0 and T=+7 hours; for change in vivo at 100 mg/kg: 100 mg/kg p.o. at T=0 and T=+7 hours
Experimental: Hypocholesterolemic activity
The hypocholesterolemic activity was studied on male Wistar rats (weighing about 200 to 220 g). Groups of 10 rats per product and per dose are fasted the day before the experiment. The products to be tested are administered in gum water (30 g/liter of gum arabic) at times T=0 and T=+7 hours. The cholesterol level in the plasma is measured at times T=0 and T=+24 hours and the percentage variation between T=0 and T=+24 hours is then calculated for the treated groups and the control groups.

[3] = Antithrombotic effects (statement only); conditions: in words
[4] = system: mice; test: Acute toxicity, intraperitoneal administration to mice; assay type: in vivo; conditions: i.p.
Text: as §1

SMILES | LD0 (maximum non-lethal dose) [4] [mg/kg] | change in vivo at 100 mg/kg [2] [%] | other results
O=[N+]([O-])c1ccc(Cc2ccc(O[C@@H]3OC[C@@H](O)[C@H](O)[C@H]3O)cc2)cc1 [Example 1, 4-(4-nitrobenzyl)phenyl β-D-xylopyranoside] | – | – | LD50 [1]: 650 mg/kg; change in vivo at 65 mg/kg [2]: -39%; antithrombotic effects [3]: beneficial antithrombotic effects
O=[N+]([O-])c1cccc(Cc2ccc(O[C@@H]3OC[C@@H](O)[C@H](O)[C@H]3O)cc2)c1 [Example 2, 4-(3-nitrobenzyl)phenyl β-D-xylopyranoside] | > 800 | -27 | –
CC(=O)N[C@H]1[C@H](Oc2ccc(Cc3ccc([N+](=O)[O-])cc3)cc2)O[C@H](CO)[C@@H](O)[C@@H]1O [Example 3] | > 800 | -42 | –
O=[N+]([O-])c1ccc(Cc2ccc(O[C@@H]3O[C@H](CO)[C@H](O)[C@H](O)[C@H]3O)cc2)cc1 [Example 4] | ≥ 900 | -33 | –
C[C@@H]1O[C@@H](Oc2ccc(Cc3ccc([N+](=O)[O-])cc3)cc2)[C@H](O)[C@H](O)[C@H]1O [Example 5] | – | -7 | –
O=[N+]([O-])c1ccc(Cc2ccc(O[C@@H]3OC[C@H](O)[C@H](O)[C@H]3O)cc2)cc1 [Example 6] | ≥ 900 | -29 | –
O[C@@H]1[C@@H](O)[C@H](Oc2ccc(Cc3ccccc3Cl)cc2)OC[C@H]1O [Example 7] | > 800 | -20 | –
O[C@@H]1[C@@H](O)[C@H](Oc2ccc(Cc3cccc(Cl)c3)cc2)OC[C@H]1O [Example 8] | – | -37 | LD50 [1]: ≥ 800 mg/kg
O[C@@H]1[C@@H](O)[C@H](Oc2ccc(Cc3ccc(Cl)cc3)cc2)OC[C@H]1O [Example 9, 4-(4-chlorobenzyl)phenyl β-D-xylopyranoside] | > 800 | -37 | –
O[C@@H]1[C@@H](O)[C@H](Oc2ccc(Cc3ccc(Br)cc3)cc2)OC[C@H]1O [Example 10] | ≥ 900 | -39 | –
Cc1ccc(Cc2ccc(O[C@@H]3OC[C@@H](O)[C@H](O)[C@H]3O)cc2)cc1 [Example 11] | > 800 | -19 | –
Cc1ccccc1Cc1ccc(O[C@@H]2OC[C@@H](O)[C@H](O)[C@H]2O)cc1 [Example 12] | > 800 | -28 | –
Cc1cccc(Cc2ccc(O[C@@H]3OC[C@@H](O)[C@H](O)[C@H]3O)cc2)c1 [Example 13] | ≥ 800 | -24 | –
COc1ccc(Cc2ccc(O[C@@H]3OC[C@@H](O)[C@H](O)[C@H]3O)cc2)cc1 [Example 15] | > 800 | -47 | –
COc1cccc(Cc2ccc(O[C@@H]3OC[C@@H](O)[C@H](O)[C@H]3O)cc2)c1 [Example 17] | > 1000 | -50 | –
O[C@@H]1[C@@H](O)[C@H](Oc2ccc(Cc3ccc(C(F)(F)F)cc3)cc2)OC[C@H]1O [Example 18] | – | -17 | LD50 [1]: > 900 mg/kg
Nc1ccc(Cc2ccc(O[C@@H]3OC[C@@H](O)[C@H](O)[C@H]3O)cc2)cc1 [Example 19] | > 800 | -29 | –
CN(C)c1ccc(Cc2ccc(O[C@@H]3OC[C@@H](O)[C@H](O)[C@H]3O)cc2)cc1 [Example 20] | – | -22 | –

SMILES | LD0 (maximum non-lethal dose) [4] [mg/kg] | change in vivo at 100 mg/kg [2] [%] | other results
Nc1cccc(Cc2ccc(O[C@@H]3OC[C@@H](O)[C@H](O)[C@H]3O)cc2)c1 [Example 23] | ≥ 900 | -28 | –
O[C@@H]1[C@@H](O)[C@H](Oc2ccc(Cc3ccc(Cl)cc3Cl)cc2)OC[C@H]1O [Example 26] | – | -8 | LD50 [1]: 640 mg/kg
Cc1cc(C)c(Cc2ccc(O[C@@H]3OC[C@@H](O)[C@H](O)[C@H]3O)cc2)c(C)c1 [Example 27] | ≥ 800 | -13 | –
Oc1ccc(Cc2ccc(O[C@@H]3OC[C@@H](O)[C@H](O)[C@H]3O)cc2)cc1 [Example 29] | ≥ 800 | -37 | –
Cc1ccc(Cc2cc(C)c(OC3OC[C@@H](O)[C@H](O)[C@H]3O)c(C)c2)cc1 (stereo partly drawn) [Example 30] | – | -12 | LD50 [1]: 630 mg/kg
O[C@@H]1[C@@H](O)[C@H](Oc2ccc(Cc3ccccc3)cc2)OC[C@H]1O [Example 33, 4-(benzyl)phenyl β-D-xylopyranoside] | > 800 | -38 | –
O=[N+]([O-])c1cc(Cc2ccccc2)ccc1O[C@@H]1OC[C@@H](O)[C@H](O)[C@H]1O [Example 34] | – | – | LD50 [1]: 250 mg/kg; change in vivo at 25 mg/kg ([2]; 25 mg/kg p.o. at T=0 and T=+7 hours): -15%
CC(=O)O[C@@H]1[C@@H](OC(C)=O)[C@H](Oc2ccc(Cc3c(C)cc(C)cc3C)cc2)OC[C@H]1OC(C)=O [Example 62] | > 900 | -18 | –
O=[N+]([O-])c1ccc(Cc2ccc(O[C@@H]3O[C@H](CO)[C@@H](O)[C@H](O)[C@H]3O)cc2)cc1 [Example 71] | ≥ 900 | – | change in vivo at 65 mg/kg [2]: -21%
O[C@@H]1[C@@H](O)[C@H](Oc2cccc(Cc3ccc(Cl)cc3)c2)OC[C@H]1O [Example 75] | – | -43 | –
O[C@@H]1[C@@H](O)[C@H](Oc2cccc(Cc3ccccc3)c2)OC[C@H]1O [Example 77] | – | -25 | –
Cc1cc(Cc2ccccc2)ccc1O[C@@H]1OC[C@@H](O)[C@H](O)[C@H]1O [Example 79] | – | – | LD50 [1]: 320 mg/kg; change in vivo at 30 mg/kg ([2]; 30 mg/kg p.o. at T=0 and T=+7 hours): -37%
Cc1cc(Cc2ccc([N+](=O)[O-])cc2)cc(C)c1OC1OC[C@@H](O)[C@H](O)[C@H]1O (stereo partly drawn) [Example 82] | > 800 | – | –
CSc1ccc(Cc2ccc(O[C@@H]3OC[C@@H](O)[C@H](O)[C@H]3O)cc2)cc1 [Example 85, 4-(4-methylthiobenzyl)phenyl β-D-xylopyranoside] | > 800 | -23 | –
CS(=O)(=O)c1ccc(Cc2ccc(O[C@@H]3OC[C@@H](O)[C@H](O)[C@H]3O)cc2)cc1 [Example 89, 4-(4-mesylbenzyl)phenyl β-D-xylopyranoside] | – | – | LD50 [1]: 450 mg/kg; change in vivo at 45 mg/kg ([2]; 45 mg/kg p.o. at T=0 and T=+7 hours): -30%
CS(=O)(=O)c1ccc(Cc2ccc(O[C@@H]3O[C@H](CO)[C@@H](O)[C@H](O)[C@H]3O)cc2)cc1 [Example 91, 4-(4-mesylbenzyl)phenyl β-D-glucopyranoside] | > 800 | -40 | –
CC(=O)N[C@H]1[C@H](Oc2ccc(Cc3ccc(S(C)(=O)=O)cc3)cc2)O[C@H](CO)[C@@H](O)[C@@H]1O [Example 93, 4-(4-mesylbenzyl)phenyl β-D-N-acetylglucosaminopyranoside] | > 800 | -36 | –
